Biological target: T1, human CGT (Homo sapiens, UniProt Q16880)
T1 sequence (Q16880 21-541): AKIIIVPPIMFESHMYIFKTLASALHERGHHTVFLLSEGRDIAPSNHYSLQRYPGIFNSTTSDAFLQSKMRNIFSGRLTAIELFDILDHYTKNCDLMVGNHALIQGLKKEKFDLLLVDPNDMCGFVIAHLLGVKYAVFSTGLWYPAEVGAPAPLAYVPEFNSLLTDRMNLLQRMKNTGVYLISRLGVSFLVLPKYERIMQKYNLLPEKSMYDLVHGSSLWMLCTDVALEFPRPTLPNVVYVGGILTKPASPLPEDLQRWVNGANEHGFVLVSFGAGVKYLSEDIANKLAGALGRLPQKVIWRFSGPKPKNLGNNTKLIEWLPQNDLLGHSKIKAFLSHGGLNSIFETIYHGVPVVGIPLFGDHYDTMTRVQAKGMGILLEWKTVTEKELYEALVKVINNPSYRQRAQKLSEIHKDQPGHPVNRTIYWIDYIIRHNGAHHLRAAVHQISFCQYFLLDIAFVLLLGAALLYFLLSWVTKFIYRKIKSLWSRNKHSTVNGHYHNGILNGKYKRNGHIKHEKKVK
Assay: Assay 1: CGT Enzymatic Assay (RapidFire/MS/MS, 0.01% Tween 80)
Format: biochemical
Conditions: Table 1, Compounds of Formula (I) and Formula (II); CGT enzymatic assay, C6-NBD-dihydro-galactosylceramide readout; read-out: IC50

| IC50 [nM] | SMILES |
| --- | --- |
| < 1000 | COCC1(C)N(c2ccc(Cl)cc2)C(=O)N(c2ccc(Cl)cc2)C1(O)c1cccc(OC(F)(F)F)c1 (mixture of isomers) [Compound 296, 1,3-bis(4-chlorophenyl)-4-hydroxy-5-(methoxymethyl)-5-methyl-4-(3-(trifluoromethoxy)phenyl)imidazolidin-2-one] |
| < 1000 | COc1ccc(N2C(=O)N(c3ccc(OC)cc3)C(O)(c3cccc(OC(F)(F)F)c3)C2C(C)C)cc1 (racemic) [Example 329, (5S)-4-hydroxy-5-isopropyl-1,3-bis(4-methoxyphenyl)-4-(3-(trifluoromethoxy)phenyl)imidazolidin-2-one and (5R)-4-hydroxy-5-isopropyl-1,3-bis(4-methoxyphenyl)-4-(3-(trifluoromethoxy)phenyl)imidazolidin-2-one] |
| < 1000 | CC1(C(F)(F)F)N(c2ccc(Cl)cc2)C(=O)N(c2ccc(Cl)cc2)C1(O)c1cc(C#N)cc(C#N)c1 (racemic) [Example 331, 5-((5S)-1,3-bis(4-chlorophenyl)-4-hydroxy-5-methyl-2-oxo-5-(trifluoromethyl)imidazolidin-4-yl)isophthalonitrile and 5-((5R)-1,3-bis(4-chlorophenyl)-4-hydroxy-5-methyl-2-oxo-5-(trifluoromethyl)imidazolidin-4-yl)isophthalonitrile] |
| < 1000 | COC[C@@]1(C)N(c2ccc(Cl)cc2)C(=O)N(c2ccc(Cl)cc2)C1(O)c1cccc(C#N)c1 (single isomer, unassigned) [Compound 297-1] |
| < 1000 | COC[C@]1(C)N(c2ccc(Cl)cc2)C(=O)N(c2ccc(Cl)cc2)C1(O)c1cccc(C#N)c1 (single isomer, unassigned) [Compound 297-2] |

Same assay, conditions: Table 1, Compounds of Formula (I) and Formula (II); CGT enzymatic assay; read-out: IC50

| SMILES | IC50 [nM] |
| --- | --- |
| C[C@H]1N(c2ccc(Cl)cc2)C(=O)N(c2ccc(Cl)cc2)C1(O)c1cccc(Cl)c1 (single isomer, unassigned) [Compound 62-2] | < 1000 |
| C[C@@H]1N(c2ccc(Cl)cc2)C(=O)N(c2ccc(Cl)cc2)C1(O)c1cccc(C(F)(F)F)c1 (single isomer, unassigned) [Compound 77-1] | < 1000 |
| COC(=O)C1(O)[C@H](C)N(c2ccc(Br)cc2)C(=O)N1c1ccc(Br)cc1 (single isomer, unassigned) [Compound 84-1] | > 50000 |
| COC(=O)C1(O)[C@@H](C)N(c2ccc(Br)cc2)C(=O)N1c1ccc(Br)cc1 (single isomer, unassigned) [Compound 84-2] | > 50000 |
| C[C@@H]1N(c2ccc(Cl)cc2)C(=O)N(c2ccc(Cl)cc2)C1(O)c1cccc(C#N)c1 (single isomer, unassigned) [Compound 99-1] | < 1000 |
| C[C@H]1N(c2ccc(Cl)cc2)C(=O)N(c2ccc(Cl)cc2)C1(O)c1cccc(C#N)c1 (single isomer, unassigned) [Compound 99-2] | < 1000 |
| CCc1ccc(N2C(=O)N(c3ccc(CC)cc3)C(O)(c3cccc(C#N)c3)[C@@H]2C)cc1 (single isomer, unassigned) [Compound 104-1] | 10000 to 50000 |
| Cc1ccc(N2C(=O)N(c3ccc(C)cc3)C(O)(c3cccc(C#N)c3)[C@H]2C)cc1 (single isomer, unassigned) [Compound 105-2] | < 1000 |
| CC[C@@H]1N(c2ccc(Cl)cc2)C(=O)N(c2ccc(Cl)cc2)C1(O)c1cccc(C#N)c1 (single isomer, unassigned) [Compound 106-1] | < 1000 |
| O=C1N(c2ccc(Cl)cc2)[C@@H]([C@@H]2CCCO2)C(O)(c2cccc(Cl)c2)N1c1ccc(Cl)cc1 (single isomer, unassigned) [Compound 117-1] | 1000 to 10000 |
| CC[C@H]1N(c2ccc(F)cc2)C(=O)N(c2ccc(F)cc2)C1(O)c1cccc(C(F)(F)F)c1 (single isomer, unassigned) [Compound 139-2] | < 1000 |
| C[C@]1(c2cccc(Cl)c2)C(O)N(c2ccc(Cl)cc2)C(=O)N1c1ccc(Cl)cc1 (single isomer, unassigned) [Compound 149-1] | 1000 to 10000 |
| C[C@@]1(c2cccc(Cl)c2)C(O)N(c2ccc(Cl)cc2)C(=O)N1c1ccc(Cl)cc1 (single isomer, unassigned) [Compound 149-2] | < 1000 |
| Cc1ccc(N2C(=O)N(c3ccc(C)cc3)C(O)(c3cccc(OC(F)(F)F)c3)[C@@H]2C(C)C)cc1 (single isomer, unassigned) [Compound 235-1] | < 1000 |
| Cc1ccc(N2C(=O)N(c3ccc(C)cc3)C(O)(c3cccc(OC(F)(F)F)c3)[C@H]2C(C)C)cc1 (single isomer, unassigned) [Compound 235-2] | < 1000 |
| CC[C@]1(C)N(c2ccc(Cl)cc2)C(=O)N(c2ccc(Cl)cc2)C1(O)c1cccc(OC(F)(F)F)c1 (single isomer, unassigned) [Example 163-2] | < 1000 |
| CN(C)C[C@@H]1N(c2ccc(Cl)cc2)C(=O)N(c2ccc(Cl)cc2)C1(O)c1cccc(OC(F)(F)F)c1 (single isomer, unassigned) [Example 166-1] | < 1000 |
| CC[C@]1(C)N(c2ccc(Cl)cc2)C(=O)N(c2ccc(Cl)cc2)C1(O)c1cccc(C#N)c1 (single isomer, unassigned) [Example 185-2] | < 1000 |

Now from value to compound:

| IC50 [nM] | SMILES |
| --- | --- |
| < 1000 | C[C@@H]1N(c2ccc(Cl)cc2)C(=O)N(c2ccc(Cl)cc2)C1(O)c1cccc(Cl)c1 (single isomer, unassigned) [Compound 62-1] |
| < 1000 | CCC[C@@H]1N(c2ccc(Cl)cc2)C(=O)N(c2ccc(Cl)cc2)C1(O)c1cccc(C(F)(F)F)c1 (single isomer, unassigned) [Compound 87-1] |
| < 1000 | CCC[C@@H]1N(c2ccc(Cl)cc2)C(=O)N(c2ccc(Cl)cc2)C1(O)c1cccc(C#N)c1 (single isomer, unassigned) [Compound 101-1] |
| < 1000 | CCc1ccc(N2C(=O)N(c3ccc(CC)cc3)C(O)(c3cccc(C#N)c3)[C@H]2C)cc1 (single isomer, unassigned) [Compound 104-2] |
| 1000 to 10000 | Cc1ccc(N2C(=O)N(c3ccc(C)cc3)C(O)(c3cccc(C#N)c3)[C@@H]2C)cc1 (single isomer, unassigned) [Compound 105-1] |
| < 1000 | CC[C@H]1N(c2ccc(Cl)cc2)C(=O)N(c2ccc(Cl)cc2)C1(O)c1cccc(C#N)c1 (single isomer, unassigned) [Compound 106-2] |
| 1000 to 10000 | O=C1N(c2ccc(Cl)cc2)[C@H]([C@H]2CCCO2)C(O)(c2cccc(Cl)c2)N1c1ccc(Cl)cc1 (single isomer, unassigned) [Compound 117-2] |
| > 50000 | COc1cccc([C@@]2(C)C(O)N(c3ccc(Br)cc3)C(=O)N2c2ccc(Br)cc2)c1 (single isomer, unassigned) [Compound 126-1] |
| < 1000 | COc1cccc([C@]2(C)C(O)N(c3ccc(Br)cc3)C(=O)N2c2ccc(Br)cc2)c1 (single isomer, unassigned) [Compound 126-2] |
| 1000 to 10000 | N#Cc1cccc(C2(O)[C@H](CC3CC3)N(c3ccc(Cl)cc3)C(=O)N2c2ccc(Cl)cc2)c1 (single isomer, unassigned) [Compound 132-1] |
| < 1000 | N#Cc1cccc(C2(O)[C@@H](CC3CC3)N(c3ccc(Cl)cc3)C(=O)N2c2ccc(Cl)cc2)c1 (single isomer, unassigned) [Compound 132-2] |
| 1000 to 10000 | CC(=O)c1cccc(C2(O)[C@H](C)N(c3ccc(Cl)cc3)C(=O)N2c2ccc(Cl)cc2)c1 (single isomer, unassigned) [Compound 136-1] |
| 1000 to 10000 | CC[C@@H]1N(c2ccc(F)cc2)C(=O)N(c2ccc(F)cc2)C1(O)c1cccc(C(F)(F)F)c1 (single isomer, unassigned) [Compound 139-1] |
| 1000 to 10000 | C[C@]1(C(F)(F)F)N(c2ccc(Cl)cc2)C(=O)N(c2ccc(Cl)cc2)C1(O)c1cccc(OC(F)(F)F)c1 (single isomer, unassigned) [Example 159-1] |
| < 1000 | C[C@@]1(C(F)(F)F)N(c2ccc(Cl)cc2)C(=O)N(c2ccc(Cl)cc2)C1(O)c1cccc(OC(F)(F)F)c1 (single isomer, unassigned) [Example 159-2] |
| 1000 to 10000 | CC[C@@]1(C)N(c2ccc(Cl)cc2)C(=O)N(c2ccc(Cl)cc2)C1(O)c1cccc(OC(F)(F)F)c1 (single isomer, unassigned) [Example 163-1] |
| < 1000 | CN(C)C[C@H]1N(c2ccc(Cl)cc2)C(=O)N(c2ccc(Cl)cc2)C1(O)c1cccc(OC(F)(F)F)c1 (single isomer, unassigned) [Example 166-2] |
| 10000 to 50000 | CCC[C@@]1(C)N(c2ccc(Cl)cc2)C(=O)N(c2ccc(Cl)cc2)C1(O)c1cccc(OC(F)(F)F)c1 (single isomer, unassigned) [Example 170-1] |
| < 1000 | CCC[C@]1(C)N(c2ccc(Cl)cc2)C(=O)N(c2ccc(Cl)cc2)C1(O)c1cccc(OC(F)(F)F)c1 (single isomer, unassigned) [Example 170-2] |
| < 1000 | C[C@]1(C(F)(F)F)N(c2ccc(Cl)cc2)C(=O)N(c2ccc(Cl)cc2)C1(O)c1cccc(C#N)c1 (single isomer, unassigned) [Example 177-1] |
| 1000 to 10000 | C[C@@]1(C(F)(F)F)N(c2ccc(Cl)cc2)C(=O)N(c2ccc(Cl)cc2)C1(O)c1cccc(C#N)c1 (single isomer, unassigned) [Example 177-2] |
| 10000 to 50000 | CC[C@@]1(C)N(c2ccc(Cl)cc2)C(=O)N(c2ccc(Cl)cc2)C1(O)c1cccc(C#N)c1 (single isomer, unassigned) [Example 185-1] |

From patent US20190134005A1 (BioMarin Pharmaceutical Inc., priority 2016, published 2019)
